This is an account of results in the supplement of paper PMC10307832.

Holding throughout (test): relative viability (nuclei count vs DMSO), 5 days (fraction); higher = more cells survive
Compound in assay [1]: CN(C)C/C=C/C(=O)Nc1cc2c(Nc3ccc(F)c(Cl)c3)ncnc2cc1O[C@H]1CCOC1 [Afatinib] + O=C(CCCCCCC(=O)Nc1ccccc1)NO [Vorinostat] (partner 1 µM)
Summed up:
(§1)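 Lung cancer cell lines in 1536-well plates were dosed by pin tool the day after seeding, either with one drug alone or with a fixed anchor-drug dose plus five library-drug doses (not always all listed) in √10 steps. After 5 days, cells were fixed and their nuclei stained in one step (final 0.05% Triton X-100, 1% formaldehyde, 1 ug/ml Hoechst), then counted on 4× images. Relative viability is the nuclei count in treated wells divided by that in vehicle wells. Values are medians of duplicate plates.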

Compound in assay [2]: CN(C)C/C=C/C(=O)Nc1cc2c(Nc3ccc(F)c(Cl)c3)ncnc2cc1O[C@H]1CCOC1 [Afatinib] + CC(=O)c1c(C)c2cnc(Nc3ccc(N4CCNCC4)cn3)nc2n(C2CCCC2)c1=O [Palbociclib] (partner 0.5 µM)
The method in brief: as §1

Compound in assay [3]: CN(C)C/C=C/C(=O)Nc1cc2c(Nc3ccc(F)c(Cl)c3)ncnc2cc1O[C@H]1CCOC1 [Afatinib] + NC(=O)Nc1cc(-c2cccc(F)c2)sc1C(=O)N[C@H]1CCCNC1 [AZD7762] (partner 0.2 µM)
The method in brief: as §1

Compound in assay [4]: CN(C)C/C=C/C(=O)Nc1cc2c(Nc3ccc(F)c(Cl)c3)ncnc2cc1O[C@H]1CCOC1 [Afatinib] + C[C@@H](Oc1cc(-c2cnn(C3CCNCC3)c2)cnc1N)c1c(Cl)ccc(F)c1Cl [Crizotinib] (partner 1 µM)
The method in brief: as §1

As for HCC-44, the relative viability in assay [1] (first compound 0.005 µM) was found to be 1.18; in assay [1] (first compound 0.01581 µM), 1.09; in assay [1] (first compound 0.05 µM), 1.18; in assay [1] (first compound 0.1581 µM), 1.1; in assay [1] (first compound 0.5 µM), 1.05; in assay [2] (first compound 0.005 µM), 1. Also, the relative viability was found to be 0.968 in assay [2] (first compound 0.01581 µM); 1.05 in assay [2] (first compound 0.05 µM); 0.944 in assay [2] (first compound 0.1581 µM); 1.02 in assay [2] (first compound 0.5 µM); 0.98 in assay [3] (first compound 0.005 µM); 0.973 in assay [3] (first compound 0.01581 µM). In addition, the relative viability in assay [3] (first compound 0.05 µM) worked out at 1.07; in assay [3] (first compound 0.1581 µM) it was 1; in assay [3] (first compound 0.5 µM) it was 0.959; in assay [4] (first compound 0.005 µM), 0.902; in assay [4] (first compound 0.01581 µM), 0.866; in assay [4] (first compound 0.05 µM) it was 0.786. Besides, the relative viability in assay [4] (first compound 0.1581 µM) came to 0.782; in assay [4] (first compound 0.5 µM), 0.847.

On to HCC-78, for which the relative viability in assay [1] (first compound 0.005 µM) was 0.433; in assay [1] (first compound 0.01581 µM), 0.404; in assay [1] (first compound 0.05 µM), 0.422; in assay [1] (first compound 0.1581 µM) it was 0.345; in assay [1] (first compound 0.5 µM), 0.376; in assay [2] (first compound 0.005 µM), 0.46. The relative viability in assay [2] (first compound 0.01581 µM) stood at 0.41; in assay [2] (first compound 0.05 µM), 0.452; in assay [2] (first compound 0.1581 µM) it was 0.594; in assay [2] (first compound 0.5 µM) it was 0.461; in assay [3] (first compound 0.005 µM) it was 0.693; in assay [3] (first compound 0.01581 µM) it was 0.542. Besides, the relative viability came to 0.509 in assay [3] (first compound 0.05 µM); 0.478 in assay [3] (first compound 0.1581 µM); 0.449 in assay [3] (first compound 0.5 µM); 0.308 in assay [4] (first compound 0.005 µM); 0.279 in assay [4] (first compound 0.01581 µM); 0.245 in assay [4] (first compound 0.05 µM). Besides, the relative viability in assay [4] (first compound 0.1581 µM) was 0.252; in assay [4] (first compound 0.5 µM), 0.221.

Turning to HCC-366, the relative viability in assay [1] (first compound 0.005 µM) worked out at 0.329; in assay [1] (first compound 0.01581 µM), 0.36; in assay [1] (first compound 0.05 µM), 0.348; in assay [1] (first compound 0.1581 µM), 0.36; in assay [1] (first compound 0.5 µM), 0.345; in assay [2] (first compound 0.005 µM), 0.469. In addition, the relative viability was 0.361 in assay [2] (first compound 0.01581 µM); 0.443 in assay [2] (first compound 0.05 µM); 0.37 in assay [2] (first compound 0.1581 µM); 0.456 in assay [2] (first compound 0.5 µM); 0.194 in assay [3] (first compound 0.005 µM); 0.285 in assay [3] (first compound 0.01581 µM). Moreover, the relative viability in assay [3] (first compound 0.05 µM) was found to be 0.259; in assay [3] (first compound 0.1581 µM), 0.337; in assay [3] (first compound 0.5 µM), 0.264; in assay [4] (first compound 0.005 µM), 0.746; in assay [4] (first compound 0.01581 µM), 0.643; in assay [4] (first compound 0.05 µM), 0.554. Also, the values for the relative viability in assay [4] (first compound 0.1581 µM) and in assay [4] (first compound 0.5 µM) were 0.428 and 0.476, respectively.

In the case of HCC-827, the relative viability in assay [1] (first compound 0.005 µM) came to 0.166; in assay [1] (first compound 0.01581 µM) it was 0.134; in assay [1] (first compound 0.05 µM), 0.146; in assay [1] (first compound 0.1581 µM), 0.151; in assay [1] (first compound 0.5 µM), 0.146; in assay [2] (first compound 0.005 µM) it was 0.158. Also, the relative viability in assay [2] (first compound 0.01581 µM) came out at 0.139; in assay [2] (first compound 0.05 µM), 0.164; in assay [2] (first compound 0.1581 µM), 0.171; in assay [2] (first compound 0.5 µM), 0.136; in assay [3] (first compound 0.005 µM), 0.11; in assay [3] (first compound 0.01581 µM) it was 0.119. Besides, the relative viability in assay [3] (first compound 0.05 µM) is 0.125; in assay [3] (first compound 0.1581 µM) it was 0.121; in assay [3] (first compound 0.5 µM) it was 0.0942; in assay [4] (first compound 0.005 µM), 0.169; in assay [4] (first compound 0.01581 µM), 0.176; in assay [4] (first compound 0.05 µM) it was 0.184. The relative viability in assay [4] (first compound 0.1581 µM) came to 0.184; in assay [4] (first compound 0.5 µM), 0.21.
